In US20260035384A1, “COMPOUND CONTAINING CYCLOHEXYL” (CHIA TAI TIANQING PHARMACEUTICAL GROUP CO., LTD., priority 2022, published 2026):
Where a chain is given by its changes, count along the chain named.

What was measured:
Type in all cases: cell-based
AR in LNCaP cells = target: T1, AR in LNCaP cells (Homo sapiens, UniProt P10275, T878A); test: Assay on degradation activity for AR in LNCaP cells (HTRF human androgen receptor detection kit); conditions: 24 h incubation; for DC50: HTRF
T1 construct: Assay on Degradation Activity for AR in LNCaP Cells; endogenous in cells; host or cells: LNCaP cells
T1 sequence (P10275 1-920 T878A): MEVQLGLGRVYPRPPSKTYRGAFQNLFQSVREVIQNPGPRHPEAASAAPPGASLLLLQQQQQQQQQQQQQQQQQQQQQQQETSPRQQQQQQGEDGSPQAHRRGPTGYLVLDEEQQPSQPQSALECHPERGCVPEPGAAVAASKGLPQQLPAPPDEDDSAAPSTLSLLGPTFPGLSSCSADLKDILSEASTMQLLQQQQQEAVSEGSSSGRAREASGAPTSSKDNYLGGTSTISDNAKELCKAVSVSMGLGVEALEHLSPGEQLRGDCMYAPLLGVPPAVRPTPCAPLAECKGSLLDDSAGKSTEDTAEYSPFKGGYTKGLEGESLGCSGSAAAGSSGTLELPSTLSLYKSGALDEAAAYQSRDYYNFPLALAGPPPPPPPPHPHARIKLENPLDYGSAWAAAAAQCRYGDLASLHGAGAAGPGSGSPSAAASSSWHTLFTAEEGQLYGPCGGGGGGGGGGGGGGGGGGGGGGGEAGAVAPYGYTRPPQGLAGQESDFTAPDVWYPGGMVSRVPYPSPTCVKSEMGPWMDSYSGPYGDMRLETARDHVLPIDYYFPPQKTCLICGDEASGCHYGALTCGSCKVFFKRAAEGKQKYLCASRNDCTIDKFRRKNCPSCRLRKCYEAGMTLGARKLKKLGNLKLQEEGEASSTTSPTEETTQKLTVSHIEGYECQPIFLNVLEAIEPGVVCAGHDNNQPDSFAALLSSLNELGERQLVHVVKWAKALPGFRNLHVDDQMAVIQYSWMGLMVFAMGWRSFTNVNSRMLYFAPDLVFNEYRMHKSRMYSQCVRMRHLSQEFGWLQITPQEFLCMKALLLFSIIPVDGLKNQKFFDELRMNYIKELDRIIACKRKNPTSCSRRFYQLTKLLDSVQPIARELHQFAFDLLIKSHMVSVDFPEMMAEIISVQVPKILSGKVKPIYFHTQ
Protocol: (§1) The detection was carried out using the HTRF HUMAN ANDROGEN RECEPTOR DETECTION KIT (cisbio, 64ANDRPEG), 4× Supplemented Lysis buffer was prepared using the Blocking reagent stock solution (100×) and Lysis buffer stock solution (4×), and 1× Supplemented Lysis buffer was prepared using the 4× Supplemented Lysis buffer and ddH2O. Premixed antibody solutions were prepared using Detection buffer, Androgen Receptor Eu Cryptate antibody, and Androgen Receptor d2 antibody.
(§2) LNCaP cells in a good growth state were taken, washed with PBS, digested with pancreatin, and added with 2% CSS—FBS phenol red-free 1640 complete medium to terminate the digestion. The cells were collected by using a centrifuge tube, adjusted to a cell density of 1×10^6 cells/mL, and seeded in a 96-well plate (100 μL/well). The cells were incubated overnight in a cell incubator. Compounds were added using a nanoliter pipettor such that the final concentrations of the compounds were 500 nM-0.488 nM. Two duplicate wells were set for each concentration, and meanwhile, a control was set. After another 24 h of incubation in the cell incubator, the medium was pipetted out, the 1× Supplemented Lysis buffer was added at 40 μL/well to lyse the cells. After the cells were oscillated for 40 min at room temperature, 16 μL of the cell lysate was added to a 384-well plate, the Premixed antibody solutions were added at 4 μL/well, and the mixture was left to stand at 25° C. for 2 h. Fluorescence values were detected at 665 nm/620 nm using an Envision microplate reader, the four-parameter analysis was performed, the dose-response curves were fit, and DC50 (the concentration of the drug when the degradation rate reaches 50%) and Dmax (the maximum degradation rate) were calculated.

AR in VCaP cells = target: T2, AR in VCaP cells (Homo sapiens, UniProt P10275); test: Assay on degradation activity for AR in VCaP cells (HTRF human androgen receptor detection kit); conditions: 24 h incubation
T2 construct: Assay on Degradation Activity for AR in VCaP Cells; endogenous in cells; host or cells: VCaP cells
T2 sequence (P10275 1-920): T1 sequence (P10275 1-920 T878A) with A878T
Protocol: as §1
as §2, with “VCaP” for “LNCaP”, “DMEM” for “1640”, “µL/well).” for “μL/well).”, “1000 nM-0.977” for “500 nM-0.488”

VCaP cells = test: Assay on inhibitory activity for VCaP cell proliferation (CCK-8); conditions: 168 h incubation
Protocol: (§3) 2.1 Assay on inhibitory activity for VCaP cell proliferation VCaP cells in a good growth state were taken, washed with PBS, digested with pancreatin, and added with 5% CSS—FBS phenol red-free DMEM complete medium to terminate the digestion. The cells were collected by using a centrifuge tube, adjusted to a cell density of 1×10^5 cells/mL, and seeded in a 96-well plate (100 μL/well). Meanwhile, compounds were added using a nanoliter pipettor such that the final concentrations of the compounds were 10000 nM-0.61 nM. Two duplicate wells were set for each concentration, and meanwhile, a control was set. After another 168 h of incubation in the cell incubator, the detection reagent CCK-8 (manufacturer: Dojindo, 10 μL/well) was added.

LNCaP cells = test: Assay on inhibitory activity for LNCaP cell proliferation (CCK-8); conditions: 168 h incubation
Protocol: as §3, with “LNCaP” for “2.1 Assay on inhibitory activity for VCaP cell proliferation VCaP”, “2%” for “5%”, “1640” for “DMEM”

| SMILES | DC50 (AR in VCaP cells) [nM] | IC50 (LNCaP cells; Homo sapiens) [nM] | other results |
| --- | --- | --- | --- |
| N#Cc1ccc(O[C@H]2CC[C@H](NC(=O)c3cnc(N4CCN(C5CN(CC6Cc7ccc8c(C9CCC(=O)NC9=O)coc8c7C6)C5)CC4)nc3)CC2)cc1Cl (some centres unmarked) [Compound 109] | ≤ 1 | < 1000 | DC50 (AR in LNCaP cells): ≤ 20 nM; Dmax (AR in LNCaP cells; maximum degradation rate): > 80%; IC50 (VCaP cells; Homo sapiens, VCaP, 168 h): < 100 nM |
| N#Cc1ccc(O[C@H]2CC[C@H](NC(=O)c3ccc(N4CCC(N5CC(N6CCc7ccc8c(C9CCC(=O)NC9=O)noc8c7CC6)C5)CC4)nn3)CC2)cc1Cl (some centres unmarked) [Compound 95] | ≤ 1 | < 1000 | IC50 (VCaP cells; Homo sapiens): < 100 nM |
| N#Cc1ccc(O[C@H]2CC[C@H](NC(=O)c3ccc(N4CCN(C5CN(CC6Cc7ccc8c(C9CCC(=O)NC9=O)coc8c7C6)C5)CC4)nn3)CC2)cc1Cl (some centres unmarked) [Compound 108] | ≤ 1 | – | IC50 (VCaP cells): < 10 nM; IC50 (LNCaP cells): < 1000 nM |
| CN(c1ccc(C#N)c(Cl)c1)[C@H]1CC[C@H](NC(=O)c2ccc(N3CC(CN4CCc5c(ccc6c(C7CCC(=O)NC7=O)noc56)C4)C3)cc2)CC1 (some centres unmarked) [Compound 113] | ≤ 1 | < 1000 | IC50 (VCaP cells; Homo sapiens): < 100 nM |
| CN(c1ccc(C#N)c(Cl)c1)[C@H]1CC[C@H](NC(=O)c2ccc(N3CCC(CN4CCc5c(ccc6c(C7CCC(=O)NC7=O)noc56)C4)CC3)cc2)CC1 (some centres unmarked) [Compound 58] | ≤ 1 | < 1000 | IC50 (VCaP cells; Homo sapiens): < 10 nM |
| CN(c1ccc(C#N)c(Cl)c1)[C@H]1CC[C@H](NC(=O)c2ccc(N3CCN(CC4Cc5ccc6c(C7CCC(=O)NC7=O)noc6c5C4)CC3)cc2)CC1 (some centres unmarked) [Compound 71] | ≤ 1 | – | – |
| N#Cc1ccc(O[C@H]2CC[C@H](NC(=O)c3cnc(N4CCC(CN5CCc6c(ccc7c(C8CCC(=O)NC8=O)noc67)C5)CC4)cn3)CC2)cc1Cl (some centres unmarked) [Compound 145] | ≤ 1 | < 1000 | DC50 (AR in LNCaP cells): ≤ 20 nM; Dmax (AR in LNCaP cells; maximum degradation rate): > 80%; IC50 (VCaP cells; Homo sapiens): < 100 nM |
| N#Cc1ccc(O[C@H]2CC[C@H](NC(=O)c3ccc(N4CCC(N5CC(CN6CCc7c(ccc8c(C9CCC(=O)NC9=O)noc78)C6)C5)CC4)cc3)CC2)cc1Cl (some centres unmarked) [Compound 82] | ≤ 1 | < 1000 | – |

Further lines, with some results ahead:

| DC50 (AR in VCaP cells) [nM] | SMILES | IC50 (LNCaP cells; Homo sapiens) [nM] | other results |
| --- | --- | --- | --- |
| ≤ 1 | N#Cc1ccc(O[C@H]2CC[C@H](NC(=O)c3cnc(N4CCN(C5CN(CC6Cc7ccc8c(C9CCC(=O)NC9=O)coc8c7C6)C5)CC4)nc3)CC2)cc1Cl (some centres unmarked) [Compound 110] | – | DC50 (AR in LNCaP cells): ≤ 20 nM; Degradation activity for AR in LNCaP cells (Dmax, %) (AR in LNCaP cells; maximum degradation rate): >80%; IC50 (VCaP cells): < 100 nM; IC50 (LNCaP cells): < 1000 nM |
| ≤ 1 | N#Cc1ccc(O[C@H]2CC[C@H](NC(=O)c3ccc(N4CCC(N5CC(CN6Cc7ccc8c(C9CCC(=O)NC9=O)noc8c7C6)C5)CC4)cc3)CC2)cc1Cl (some centres unmarked) [Compound 80] | – | – |
| ≤ 1 | N#Cc1ccc(O[C@H]2CC[C@H](NC(=O)c3ccc(N4CCC(N5CC(CN6Cc7ccc8c(C9CCC(=O)NC9=O)coc8c7C6)C5)CC4)nn3)CC2)cc1Cl (some centres unmarked) [Compound 98] | < 1000 | DC50 (AR in LNCaP cells): ≤ 20 nM; Dmax (AR in LNCaP cells; maximum degradation rate): > 80%; IC50 (VCaP cells; Homo sapiens, VCaP, 168 h): < 100 nM |
| ≤ 1 | N#Cc1ccc(O[C@H]2CC[C@H](NC(=O)c3ccc(N4CCC(N5CCC(CN6CCc7ccc8c(C9CCC(=O)NC9=O)noc8c7C6)CC5)CC4)nn3)CC2)cc1Cl (some centres unmarked) [Compound 87] | – | – |
| ≤ 1 | N#Cc1ccc(O[C@H]2CC[C@H](NC(=O)c3ccc(N4CCC(N5CCC(CN6CCc7c(ccc8c(C9CCC(=O)NC9=O)noc78)C6)CC5)CC4)nn3)CC2)cc1Cl (some centres unmarked) [Compound 88] | < 1000 | – |
| ≤ 1 | N#Cc1ccc(O[C@H]2CC[C@H](NC(=O)c3ccc(N4CCC(N5CCC(CN6Cc7ccc8c(C9CCC(=O)NC9=O)noc8c7C6)CC5)CC4)nn3)CC2)cc1Cl (some centres unmarked) [Compound 86] | – | – |
| ≤ 1 | N#Cc1ccc(O[C@H]2CC[C@H](NC(=O)c3ccc(N4CCC(N5CC(CN6CCc7c(ccc8c(C9CCC(=O)NC9=O)noc78)C6)C5)CC4)nn3)CC2)cc1Cl (some centres unmarked) [Compound 92] | < 1000 | IC50 (VCaP cells; Homo sapiens, VCaP, 168 h): < 10 nM |
| ≤ 1 | N#Cc1ccc(O[C@H]2CC[C@H](NC(=O)c3ccc(N4CCC(N5CC(CN6CCc7ccc8c(C9CCC(=O)NC9=O)noc8c7C6)C5)CC4)cc3)CC2)cc1Cl (some centres unmarked) [Compound 81] | – | – |
| ≤ 1 | N#Cc1ccc(O[C@H]2CC[C@H](NC(=O)c3ccc(N4CCC(N5CC(N6Cc7ccc8c(C9CCC(=O)NC9=O)coc8c7C6)C5)CC4)nn3)CC2)cc1Cl (some centres unmarked) [Compound 96] | < 1000 | IC50 (VCaP cells; Homo sapiens, VCaP, 168 h): < 10 nM |
